Source: patent US11034672B1, “Tyrosine kinase inhibitor compositions, methods of making and methods of use” (Black Diamond Therapeutics, Inc., priority 2018, dated 2021)

Legend:
Format in all cases: cell-based
EGFR V3 [1] = biological target: T1, EGFR V3 (Homo sapiens, UniProt P00533, DELINS30-297G); test: BaF3 cell proliferation assay, EGFR V3 (Table A); conditions: potency code, 3 days, CellTiterGlo, read-out: EGFR V3 (Activity for Inhibiting EGFR)
T1 construct: expressed in transfected cells; host or cells: BaF3 (murine pro-B), retroviral pMXs-IRES-Blasticidin
Procedure: (§1) Retroviral Production: EGFR mutants were subcloned into pMXs-IRES-Blasticidin (RTV-016, Cell Biolabs, San Diego, Calif.). Retroviral expression vector retrovirus was produced by transient transfection of HEK 293T cells with the retroviral EGFR mutant expression vector pMXs-IRES-Blasticidin (RTV-016, Cell Biolabs), pCMV-Gag-Pol vector and pCMV-VSV-G-Envelope vector. Briefly, HEK 293T/17 cells were plated in 100 mm collagen coated plate (354450, Corning Life Sciences, Tewksbury, Mass.) (4×10^5 per plate) and incubated overnight. The next day, retroviral plasmids (3 μg of EGFR mutant, 1.0 μg of pCMV-Gag-Pol and 0.5 μg pCMV-VSV-G) were mixed in 500 μl of Optimem (31985, Life Technologies). The mixture was incubated at room temperature for 5 min and then added to Optimem containing transfection reagent Lipofectamine (11668, Invitrogen) and incubated for 20 minutes. Mixture was then added dropwise to HEK 293T cells. The next day the medium was replaced with fresh culture medium and retrovirus was harvested @ 24 and 48 hrs.
(§2) Generation of EGFR mutant stable cell lines: BaF3 cells (1.5E5 cells) were infected with 1 ml of viral supernatant supplemented with 8 μg/ml polybrene by centrifuging for 30 min at 1000 rpm. Cells were placed in a 37° C. incubator overnight. Cells were then spun for 5 minutes to pellet the cells. Supernatant was removed and cells re-infected a fresh 1 ml of viral supernatant supplemented with 8 μg/ml polybrene by centrifuging for 30 min at 1000 rpm. Cells were placed in 37° C. incubator overnight. […] After 48 hours cells were selected for retroviral infection in 10 μg/ml Blasticidin for one week. Blasticidin resistant populations were washed twice in phosphate buffered saline before plating in media lacking IL-3 to select for IL-3 independent growth.
(§3) EC50 values were determined with the same application.

EGFR WT [2] = biological target: T2, EGFR WT (Homo sapiens, UniProt P00533); test: BaF3 cell proliferation assay, EGFR WT (Table A); conditions: potency code, 3 days, CellTiterGlo, read-out: EGFR WT (Activity for Inhibiting EGFR)
Procedure: as §1, §2, §3

HER2 S310F [3] = biological target: T3, HER2 S310F (Homo sapiens, UniProt P04626, S310F); test: BaF3 cell proliferation assay, HER2 S310F (Table B); conditions: potency code, 3 days, CellTiterGlo, read-out: HER2 S310F (Activity for Inhibiting HER2)
T3 construct: expressed in transfected cells; host or cells: BaF3 (murine pro-B)

EGFR WT [4] = biological target: T2, EGFR WT; test: Activity for inhibiting EGFR (Table A), EGFR WT; conditions: read-out: EGFR WT, potency code (IC50)
HER2 S310F [5] = biological target: T3, HER2 S310F; test: Activity for inhibiting HER2 (Table B), HER2 S310F; conditions: read-out: HER2 S310F, potency code (IC50)
Procedure: as §3

HER2 YVMA [6] = biological target: T4, HER2 YVMA (Homo sapiens, UniProt P04626, INS775YVMA); test: Activity for inhibiting HER2 (Table B), HER2 YVMA; conditions: read-out: HER2 YVMA, potency code (IC50)
T4 construct: expressed in transfected cells; host or cells: BaF3 (murine pro-B)
Procedure: as §3

HER2 YVMA [7] = biological target: T4, HER2 YVMA; test: BaF3 cell proliferation assay, HER2 YVMA (Table B); conditions: potency code, 3 days, CellTiterGlo, read-out: HER2 YVMA (Activity for Inhibiting HER2)
EGFR V3 [8] = biological target: T1, EGFR V3; test: Activity for inhibiting EGFR (Table A), EGFR V3 (EGFR-Viii); conditions: read-out: EGFR V3, potency code (IC50)

T2 sequence (P00533 25-1210 N540K): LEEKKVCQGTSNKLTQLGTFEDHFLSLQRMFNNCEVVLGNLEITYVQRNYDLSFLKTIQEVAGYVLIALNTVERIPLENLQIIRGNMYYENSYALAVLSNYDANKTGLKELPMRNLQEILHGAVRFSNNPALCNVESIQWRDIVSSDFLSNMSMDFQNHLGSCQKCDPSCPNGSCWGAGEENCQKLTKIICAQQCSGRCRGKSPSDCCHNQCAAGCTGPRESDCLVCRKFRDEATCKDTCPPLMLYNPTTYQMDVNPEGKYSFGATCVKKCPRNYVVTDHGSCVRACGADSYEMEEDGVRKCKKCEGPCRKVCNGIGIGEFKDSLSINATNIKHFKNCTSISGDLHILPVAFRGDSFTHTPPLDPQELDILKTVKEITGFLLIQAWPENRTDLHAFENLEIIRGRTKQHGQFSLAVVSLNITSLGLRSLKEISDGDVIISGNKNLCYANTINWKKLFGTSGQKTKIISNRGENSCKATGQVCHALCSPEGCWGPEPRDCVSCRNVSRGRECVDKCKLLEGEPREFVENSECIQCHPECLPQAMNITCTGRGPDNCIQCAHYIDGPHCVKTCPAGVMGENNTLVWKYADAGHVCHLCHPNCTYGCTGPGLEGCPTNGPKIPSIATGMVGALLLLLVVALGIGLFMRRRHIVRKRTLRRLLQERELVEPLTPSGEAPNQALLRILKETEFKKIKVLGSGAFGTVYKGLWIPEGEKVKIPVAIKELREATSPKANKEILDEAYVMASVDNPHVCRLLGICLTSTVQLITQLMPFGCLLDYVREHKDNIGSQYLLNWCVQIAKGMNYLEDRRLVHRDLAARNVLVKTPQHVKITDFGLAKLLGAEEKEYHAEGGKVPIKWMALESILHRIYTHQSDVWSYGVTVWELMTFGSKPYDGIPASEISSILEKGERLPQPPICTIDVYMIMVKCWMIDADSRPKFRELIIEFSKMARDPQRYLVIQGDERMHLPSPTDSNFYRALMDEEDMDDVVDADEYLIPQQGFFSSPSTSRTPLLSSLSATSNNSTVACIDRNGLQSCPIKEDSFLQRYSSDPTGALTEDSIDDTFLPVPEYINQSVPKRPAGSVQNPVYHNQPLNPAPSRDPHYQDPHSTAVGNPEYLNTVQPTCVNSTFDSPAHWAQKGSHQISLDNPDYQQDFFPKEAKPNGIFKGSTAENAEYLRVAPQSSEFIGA
T4 sequence (P04626 with tags, fused parts or gaps INS775YVMA): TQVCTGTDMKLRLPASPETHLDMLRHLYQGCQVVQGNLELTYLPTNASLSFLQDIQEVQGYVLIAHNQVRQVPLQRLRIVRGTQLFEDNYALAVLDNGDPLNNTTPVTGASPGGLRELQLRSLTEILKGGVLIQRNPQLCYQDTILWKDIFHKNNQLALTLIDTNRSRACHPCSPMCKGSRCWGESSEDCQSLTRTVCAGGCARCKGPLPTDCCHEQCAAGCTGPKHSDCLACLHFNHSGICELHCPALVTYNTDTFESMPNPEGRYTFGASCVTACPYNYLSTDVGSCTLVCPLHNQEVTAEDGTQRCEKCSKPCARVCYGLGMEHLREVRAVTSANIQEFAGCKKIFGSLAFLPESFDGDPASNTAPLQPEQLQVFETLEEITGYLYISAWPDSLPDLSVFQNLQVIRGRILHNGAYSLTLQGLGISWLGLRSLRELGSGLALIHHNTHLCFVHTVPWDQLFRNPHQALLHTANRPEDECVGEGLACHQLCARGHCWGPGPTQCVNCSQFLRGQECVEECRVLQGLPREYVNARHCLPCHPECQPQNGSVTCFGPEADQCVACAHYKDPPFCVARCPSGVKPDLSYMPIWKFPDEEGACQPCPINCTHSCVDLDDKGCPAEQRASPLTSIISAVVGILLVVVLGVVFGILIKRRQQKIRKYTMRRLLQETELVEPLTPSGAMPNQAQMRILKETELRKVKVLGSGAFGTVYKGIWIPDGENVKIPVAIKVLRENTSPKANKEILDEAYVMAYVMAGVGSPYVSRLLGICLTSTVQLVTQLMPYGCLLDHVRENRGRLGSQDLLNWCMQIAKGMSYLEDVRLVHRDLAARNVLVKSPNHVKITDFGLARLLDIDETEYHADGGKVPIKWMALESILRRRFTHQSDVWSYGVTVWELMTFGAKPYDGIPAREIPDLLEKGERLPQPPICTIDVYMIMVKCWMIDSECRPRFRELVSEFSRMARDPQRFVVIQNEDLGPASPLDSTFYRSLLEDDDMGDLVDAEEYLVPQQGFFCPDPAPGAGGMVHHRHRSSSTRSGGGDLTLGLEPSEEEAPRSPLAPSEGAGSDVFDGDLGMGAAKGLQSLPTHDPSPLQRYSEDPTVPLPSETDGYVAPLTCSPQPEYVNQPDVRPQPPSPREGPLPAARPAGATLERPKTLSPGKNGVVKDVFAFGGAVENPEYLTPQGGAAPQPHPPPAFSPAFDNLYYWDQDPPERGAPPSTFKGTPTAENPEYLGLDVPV
T1 sequence (P00533 with tags, fused parts or gaps DELINS30-297G): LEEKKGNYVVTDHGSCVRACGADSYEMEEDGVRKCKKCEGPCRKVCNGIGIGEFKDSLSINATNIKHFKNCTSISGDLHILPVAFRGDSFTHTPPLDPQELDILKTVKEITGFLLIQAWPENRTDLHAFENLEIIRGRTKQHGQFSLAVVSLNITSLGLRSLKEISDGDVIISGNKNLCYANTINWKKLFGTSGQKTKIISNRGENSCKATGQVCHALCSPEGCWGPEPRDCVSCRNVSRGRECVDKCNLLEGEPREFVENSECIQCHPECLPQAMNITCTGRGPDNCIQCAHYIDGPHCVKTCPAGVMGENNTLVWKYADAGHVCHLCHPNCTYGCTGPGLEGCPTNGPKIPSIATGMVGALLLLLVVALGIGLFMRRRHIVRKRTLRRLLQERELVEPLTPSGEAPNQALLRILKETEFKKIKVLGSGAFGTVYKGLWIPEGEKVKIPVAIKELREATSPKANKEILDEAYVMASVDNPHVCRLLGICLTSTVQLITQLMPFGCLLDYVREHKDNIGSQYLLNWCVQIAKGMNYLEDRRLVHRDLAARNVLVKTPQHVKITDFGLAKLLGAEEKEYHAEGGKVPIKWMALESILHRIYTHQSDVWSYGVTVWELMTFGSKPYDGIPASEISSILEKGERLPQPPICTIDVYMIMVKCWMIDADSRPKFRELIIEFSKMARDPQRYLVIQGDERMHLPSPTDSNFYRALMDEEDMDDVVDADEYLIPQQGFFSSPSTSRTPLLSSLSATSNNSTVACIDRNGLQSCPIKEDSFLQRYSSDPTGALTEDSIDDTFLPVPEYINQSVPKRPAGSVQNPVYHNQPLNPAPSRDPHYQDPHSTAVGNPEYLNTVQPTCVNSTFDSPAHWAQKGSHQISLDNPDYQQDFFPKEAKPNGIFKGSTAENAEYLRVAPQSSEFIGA
T3 sequence (P04626 23-1255 S310F): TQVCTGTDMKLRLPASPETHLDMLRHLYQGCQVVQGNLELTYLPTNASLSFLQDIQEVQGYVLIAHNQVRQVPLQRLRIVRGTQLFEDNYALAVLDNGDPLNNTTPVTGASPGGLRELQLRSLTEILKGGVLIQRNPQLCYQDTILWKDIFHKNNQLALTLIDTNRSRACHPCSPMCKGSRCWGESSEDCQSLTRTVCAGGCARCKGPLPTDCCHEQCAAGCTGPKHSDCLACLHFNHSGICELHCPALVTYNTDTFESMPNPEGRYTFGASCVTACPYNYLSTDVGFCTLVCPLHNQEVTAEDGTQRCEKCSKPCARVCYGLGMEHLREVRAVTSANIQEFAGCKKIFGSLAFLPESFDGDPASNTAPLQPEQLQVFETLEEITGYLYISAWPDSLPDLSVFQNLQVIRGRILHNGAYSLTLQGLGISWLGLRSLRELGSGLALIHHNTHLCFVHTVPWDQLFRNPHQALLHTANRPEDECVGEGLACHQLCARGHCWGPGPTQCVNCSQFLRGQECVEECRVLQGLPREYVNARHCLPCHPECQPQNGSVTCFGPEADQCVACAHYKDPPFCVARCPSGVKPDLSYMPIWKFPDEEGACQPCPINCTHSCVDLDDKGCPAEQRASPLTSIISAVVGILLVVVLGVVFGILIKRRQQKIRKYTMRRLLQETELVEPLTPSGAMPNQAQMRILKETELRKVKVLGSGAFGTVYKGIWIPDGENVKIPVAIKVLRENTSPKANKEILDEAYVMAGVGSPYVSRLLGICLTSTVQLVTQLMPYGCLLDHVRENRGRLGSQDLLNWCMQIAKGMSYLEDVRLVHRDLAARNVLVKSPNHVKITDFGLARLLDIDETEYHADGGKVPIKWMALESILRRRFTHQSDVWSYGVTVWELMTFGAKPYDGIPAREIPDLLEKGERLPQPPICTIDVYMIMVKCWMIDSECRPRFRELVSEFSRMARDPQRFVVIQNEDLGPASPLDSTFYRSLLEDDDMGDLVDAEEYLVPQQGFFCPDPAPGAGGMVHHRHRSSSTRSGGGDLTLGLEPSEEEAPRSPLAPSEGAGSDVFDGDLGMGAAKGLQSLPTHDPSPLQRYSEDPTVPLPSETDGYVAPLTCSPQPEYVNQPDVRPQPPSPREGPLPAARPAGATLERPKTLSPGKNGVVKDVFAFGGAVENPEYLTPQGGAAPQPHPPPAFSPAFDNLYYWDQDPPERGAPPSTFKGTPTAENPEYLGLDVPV

| SMILES | IC50 (EGFR V3 [1]) [nM] | IC50 (EGFR WT [2]) [nM] | IC50 (HER2 S310F [3]) [nM] | IC50 (EGFR WT [4]) [nM] | IC50 (HER2 S310F [5]) [nM] | IC50 (HER2 YVMA [6]) [nM] | IC50 (HER2 YVMA [7]) [nM] | IC50 (EGFR V3 [8]) [nM] |
| --- | --- | --- | --- | --- | --- | --- | --- | --- |
| C=CC(=O)Nc1cc2c(Nc3ccc(OCc4cccc(C)n4)c(Cl)c3)ncnc2cc1OCCN1CC(OC)C1 [compound 135] | 50 to 100 | 300 to 500 | 100 to 200 | 300 to 500 | 100 to 200 | 300 to 500 | 300 to 500 | 50 to 100 |
| C=CC(=O)Nc1cc2c(Nc3ccc(OCc4cccc(F)n4)c(Cl)c3)ncnc2cc1OCCCN1CC(OC)C1 [compound 155] | 30 to 50 | 300 to 500 | 10 to 20 | 300 to 500 | 10 to 20 | 30 to 50 | 30 to 50 | 30 to 50 |
| C=CC(=O)Nc1cc2c(Nc3ccc(OCc4ccccn4)c(Cl)c3)ncnc2cc1OCCN1CCC2C1CCN2C (stereo not drawn) [compound 92, N-(4-((3-chloro-4-(pyridin-2-ylmethoxy)phenyl)amino)-7-(2-(4-methylhexahydropyrrolo[3,2-b]pyrrol-1(2H)-yl)ethoxy)quinazolin-6-yl)acrylamide] | 30 to 50 | 100 to 200 | 20 to 30 | 100 to 200 | 20 to 30 | 100 to 200 | 100 to 200 | 30 to 50 |
| C=CC(=O)Nc1cc2c(Nc3ccc(OCc4ccccn4)c(Cl)c3)ncnc2cc1OCC(C)(C)N(C)C [compound 94, N-(4-((3-chloro-4-(pyridin-2-ylmethoxy)phenyl)amino)-7-(2-(dimethylamino)-2-methylpropoxy)quinazolin-6-yl)acrylamide] | 30 to 50 | 300 to 500 | 30 to 50 | 300 to 500 | 30 to 50 | 300 to 500 | 300 to 500 | 30 to 50 |
| C=CC(=O)Nc1cc2c(Nc3cc(C)c(OCc4ccccn4)cc3F)ncnc2cc1OCCN1CCOCC1 [compound 100, N-(4-((2-fluoro-5-methyl-4-(pyridin-2-ylmethoxy)phenyl)amino)-7-(2-morpholinoethoxy)quinazolin-6-yl)acrylamide] | 30 to 50 | 300 to 500 | 50 to 100 | 300 to 500 | 50 to 100 | 300 to 500 | 300 to 500 | 30 to 50 |
| C=CC(=O)Nc1cc2c(Nc3ccc(OCc4cccnn4)c(Cl)c3)ncnc2cc1OCCCN1CCOCC1 [compound 167] | 30 to 50 | > 1000 | 10 to 20 | > 1000 | 10 to 20 | 50 to 100 | 50 to 100 | 30 to 50 |
| C=CC(=O)Nc1cc2c(Nc3ccc(OCc4cccc(F)n4)c(Cl)c3)ncnc2cc1OCCN1CCN(C)CC1 [compound 158] | 30 to 50 | 100 to 200 | 30 to 50 | 100 to 200 | 30 to 50 | 100 to 200 | 100 to 200 | 30 to 50 |
| C=CC(=O)Nc1cc2c(Nc3cc(Cl)c(OCc4cccc(F)c4)cc3F)ncnc2cc1OCCN1CCN(C)CC1 [compound 145] | 50 to 100 | 100 to 200 | 30 to 50 | 100 to 200 | 30 to 50 | 200 to 300 | 200 to 300 | 50 to 100 |
| C=CC(=O)Nc1cc2c(Nc3ccc(OCc4ccccn4)c(Cl)c3)ncnc2cc1OCCN1CCC(OC)CC1 [compound 114, N-(4-((3-chloro-4-(pyridin-2-ylmethoxy)phenyl)amino)-7-(2-(4-methoxypiperidin-1-yl)ethoxy)quinazolin-6-yl)acrylamide] | 30 to 50 | 300 to 500 | 30 to 50 | 300 to 500 | 30 to 50 | 100 to 200 | 100 to 200 | 30 to 50 |

Now from value to molecule:

| IC50 (EGFR V3 [1]) [nM] | IC50 (EGFR WT [2]) [nM] | IC50 (HER2 S310F [3]) [nM] | IC50 (EGFR WT [4]) [nM] | IC50 (HER2 S310F [5]) [nM] | IC50 (HER2 YVMA [6]) [nM] | IC50 (HER2 YVMA [7]) [nM] | IC50 (EGFR V3 [8]) [nM] | SMILES |
| --- | --- | --- | --- | --- | --- | --- | --- | --- |
| 30 to 50 | 20 to 30 | 30 to 50 | 20 to 30 | 30 to 50 | 30 to 50 | 30 to 50 | 30 to 50 | C=CC(=O)Nc1cc2c(Nc3ccc(Oc4ccc(C)nc4)c(C)c3)ncnc2cc1C#C[C@@H]1[C@H]2CN(C)C[C@@H]12 [compound 104, N-(7-(((1R,5S,6s)-3-methyl-3-azabicyclo[3.1.0]hexan-6-yl)ethynyl)-4-((3-methyl-4-((6-methylpyridin-3-yl)oxy)phenyl)amino)quinazolin-6-yl)acrylamide] |
| 30 to 50 | 100 to 200 | 5 to 10 | 100 to 200 | 5 to 10 | 50 to 100 | 50 to 100 | 30 to 50 | CC#CC(=O)Nc1cc2c(Nc3cc(Cl)c(OCc4cccc(F)c4)cc3F)ncnc2cc1OCCN1CC(OC)C1 [compound 152, N-(4-((5-chloro-2-fluoro-4-((3-fluorobenzyl)oxy)phenyl)amino)-7-(2-(3-methoxyazetidin-1-yl)ethoxy)quinazolin-6-yl)but-2-ynamide] |
| 300 to 500 | > 1000 | 300 to 500 | > 1000 | 300 to 500 | 500 to 1000 | 500 to 1000 | 300 to 500 | C=CC(=O)Nc1cc2c(Nc3ccc(OCc4cccc(C)n4)c(Cl)c3)ncnc2cc1OCCN1CC2CCC(C1)O2 [compound 132] |
| 50 to 100 | 100 to 200 | 50 to 100 | 100 to 200 | 50 to 100 | 500 to 1000 | 500 to 1000 | 50 to 100 | C=CC(=O)Nc1cc2c(Nc3ccc(OCc4ccccn4)cc3)ncnc2cc1OCCN1CCC(N(C)C)CC1 [compound 80] |
| 50 to 100 | 500 to 1000 | 30 to 50 | 500 to 1000 | 30 to 50 | 100 to 200 | 100 to 200 | 50 to 100 | C=CC(=O)Nc1cc2c(Nc3ccc(OCc4ccccn4)c(Cl)c3)ncnc2cc1C#CC1[C@H]2CNC[C@@H]12 (stereo partly drawn) [compound 105, N-(7-((1R,5S,6s)-3-azabicyclo[3.1.0]hexan-6-ylethynyl)-4-((3-chloro-4-(pyridin-2-ylmethoxy)phenyl)amino)quinazolin-6-yl)acrylamide] |
| 100 to 200 | 300 to 500 | 50 to 100 | 300 to 500 | 50 to 100 | 300 to 500 | 300 to 500 | 100 to 200 | C=CC(=O)Nc1cc2c(Nc3ccc(OCc4cccc(F)c4)c(Cl)c3)ncnc2cc1OCCCN1C[C@@H]2C[C@H]1CO2 [compound 159] |
| 200 to 300 | > 1000 | 500 to 1000 | > 1000 | 500 to 1000 | > 1000 | > 1000 | 200 to 300 | C=CC(=O)Nc1cc2c(Nc3ccc(OCc4ccccn4)c(Cl)c3)ncnc2cc1N1CC(N(C)C)C1 [compound 93, N-(4-((3-chloro-4-(pyridin-2-ylmethoxy)phenyl)amino)-7-(3-(dimethylamino)azetidin-1-yl)quinazolin-6-yl)acrylamide] |
| 50 to 100 | 500 to 1000 | 50 to 100 | 500 to 1000 | 50 to 100 | 200 to 300 | 200 to 300 | 50 to 100 | C=CC(=O)Nc1cc2c(Nc3cc(Cl)c(OCc4cccc(F)c4)cc3F)ncnc2cc1OCCN1CC2CCC(C1)O2 [compound 147] |
| 30 to 50 | > 1000 | 30 to 50 | > 1000 | 30 to 50 | 100 to 200 | 100 to 200 | 30 to 50 | C=CC(=O)Nc1cc2c(Nc3ccc(OCc4ncccn4)c(Cl)c3)ncnc2cc1OCCCN1CCOCC1 [compound 166] |
